{"source": "patent US10370438B2", "about": "“Histamine-releasing factor (HRF), HRF-receptor and methods of modulating inflammation” (LA JOLLA INSTITUTE FOR ALLERGY AND IMMUNOLOGY, priority 2010, dated 2019)", "test_system": "BALB/c mice", "assay": "OVA-induced food allergy (diarrhea) model", "assay_type": "in vivo, mouse", "procedure": "BALB/c mice were intraperitoneally sensitised with OVA (50 μg/mouse) plus alum on days 0 and 14. From day 28, mice were intragastrically challenged with OVA (50 mg) three times a week (Brandt, E. B. et al. J. Clin. Invest. 112:1666-1677 (2003)). Before each challenge, mice were starved for 3 h, then pretreated intragastrically with GST or GST-N19 (100 μg), and rested for 30 min. The development of diarrhoea was visually monitored for 90 min after OVA challenge.\nTo evaluate the role of HRF in food allergy, an OVA-induced food allergy model developed by Brandt et al. (Brandt et al., J. Clin. Invest. 112:1666 (2003)) was employed. BALB/c mice that were 6-8-week-old were intraperitoneal (i.p.) immunized twice on days 0 and 14 with 50 μg of OVA in the presence of alum. From day 28, mice were intragastrically challenged with OVA (50 mg) three times a week. Before each challenge, mice were starved for 3 hours, then pretreated with GST or GST-N19 (100 μg/mouse) intragastrically, and rested for 30 minutes. Control mice were sensitized and challenged, but not pretreated. The development of diarrhea was monitored for ninety minutes after OVA challenge. […] Sections of jejunum and ileum from mice treated as in FIG. 14 were stained with chloroacetate esterase. […] There was a good correlation shown between the number of mucosal mast cells and the number of diarrhea occurrence during 10 OVA challenges (FIG. 15D). Increased serum IgE and IgG1, but not IgG2a, levels (FIG. 16) and increased expression of mRNAs encoding Th2 cytokines (IL-4, IL-5, IL-13) and proinflammatory cytokines (IL-6, IL-1β) in the intestines were observed (data not shown). In this Th2-skewed model, the amount of HRF in plasma from diarrhea-induced mice, as measured by immunoblotting, was increased by about 2 fold compared to PBS control mice (FIG. 16E). […] However, HRF-reactive IgE was not detected under the study conditions.", "note": "“Also recorded” adds a separate entry of the source."}
{"substance": "GST-N19: GST fusion protein encoding the first 19 residues of mHRF; inhibitor of HRF/Ig interactions", "values": [{"measurement": "Development of diarrhea", "setting": "100 μg/mouse intragastrically before each OVA challenge, vs GST-pretreated or PBS-treated control mice", "value": "prevented in a much greater percentage of mice; also recorded: prevents"}, {"measurement": "Increase in mucosal mast cells", "setting": "jejunum and ileum sections", "value": "inhibited"}, {"measurement": "Increase in serosal mast cells", "setting": "jejunum and ileum sections", "value": "inhibited"}, {"measurement": "Mastocytosis in the small intestine", "setting": "mouse, in vivo", "value": "inhibits"}, {"measurement": "Plasma level of HRF-reactive IgG", "setting": "mouse, in vivo", "value": "not affected"}, {"measurement": "Plasma level of total IgE", "setting": "mouse, in vivo", "value": "not affected"}, {"measurement": "Plasma level of total IgG1", "setting": "mouse, in vivo", "value": "not affected"}, {"measurement": "Plasma level of total IgG2a", "setting": "mouse, in vivo", "value": "not affected"}]}
